From US6605604B1, “Carboxylic and hydroxamic acid compounds inhibiting metalloproteases, method for preparing same and pharmaceutical compositions containing them” (Les Laboratoires Servier, priority 1998, dated 2003)

What was measured:
B16F10 melanoma = conditions: BDF1 mice, B16F10 cells i.v. on day 1; compound i.v. at 100 mg/kg from day 0 to day 3; metastases counted on day 11
Protocol: Inhibition of the Formation of Metastases in the Mouse
The anti-tumour activity of the compounds of the invention was studied in the model of B16F10 melanoma grafted by the i.v. route. […] The parameter measured is thus the number of pulmonary metastases.
B16F1O tumour cells are injected by the i.v. route into BDF1 mice on day 1 (1 10^5 cells per mouse). The compounds are administered by the i.v. route at 100 mg/kg from day 0 to day 3 (7 animals per experimental group). On day 11, the animals are sacrificed and the pulmonary metastases are counted. The results are expressed as % inhibition compared with the control animals.

ovarian cancers = conditions: Becket et al., DDT 1996, 1, 16; cited from earlier work
[1] = tested on: rabbit cartilage collagen matrix degradation induced by IL-1β; conditions: read-out: IC50, collagen degradation (OH-proline release), IL-1β 10 ng/ml and plasmin 0.1 U/ml, 2 days
Protocol: The compounds of the invention were studied using a rabbit cartilage collagen matrix degradation model with degradation being induced by IL-1β. The tissue is placed in contact with IL -1β (10 ng/ml) and plasmin (0.1 U/ml) for 2 days. The fraction of OH-proline salted out by the tissue is evaluated by colorimetric measurement (GRANT R. A. Estimation of OH-proline by the autoanalyzer, J. Clin. Path. 1964, 17 685). The compounds of the invention were studied after the addition of various concentrations to the culture medium during the two days of the test.

Structure (SMILES)	inhibition of the formation of pulmonary metastases, % inhibition compared with the control animals (B16F10 melanoma)	anti-tumour activity in clinical use (ovarian cancers)	IC50 [1]
O=C(O)[C@H]1[C@H](Cn2nnc3ccccc3c2=O)CC[C@@H]1Sc1ccc(-c2ccc(Cl)cc2)cc1 (mixture of isomers) [Example 49, (1R,2S,5R)- and (1S,2R,5S)-2-[(4′-chloro-4-biphenyl)sulphanyl]-5-[(4-oxo-3,4-dihydro-1,2,3-benzotriazin-3-yl)methyl]-1-cyclopentanecarboxylic acid]	73%	–	–
CNC(=O)[C@H](Cc1ccccc1)NC(=O)[C@H](CC(C)C)[C@H](CSc1cccs1)C(=O)NO [BB94]	–	active in ovarian cancers	–
O=C(NO)C(CCn1nnc2ccccc2c1=O)CSCCc1ccc(-c2ccc(Cl)cc2)cc1 (stereo not shown) [Example 93, 2-{[2-(4′-Chloro-4-biphenyl)ethyl]sulphanylmethyl}-N-hydroxy-4-(4-oxo-3,4-dihydro-1,2,3-benzotriazin-3-yl)butyramide]	75%	–	1900 nM
